US20200113902A1, “COMPOSITIONS AND METHODS FOR TREATING CANCERS WITH COVALENT INHIBITORS OF CYCLIN-DEPENDENT KINASE 7 (CDK7)” (Syros Pharmaceuticals, Inc., priority 2017, published 2020)

Columns and labels:
[1] = system: gene expression in MDA-MB468 cells; experiment: Gene expression profiling via RNA-seq (DESeq2, linear model), MDA-MB468; type: cell-based; settings: four hours, JQ1 125 nM, Compound 1 25 nM
Procedure: (§1) In addition, we compared the ability of JQ1 alone, Compound 1 alone, and a combination of JQ1 and Compound 1 to modify expression of various genes in two breast cancer cell lines. Two triple-negative breast cancer cell lines (HCC70 and MDA-MB468) were tested. The cell lines were treated with JQ1, Compound 1, the JQ1/Compound 1 combination, or DMSO for four hours, after which gene expression profiling via RNA-seq was performed. JQ1 was administered to the cells at a 125 nM final concentration in both single agent and combination experiments. Compound 1 was administered to the cells at a 25 nM final concentration in both single agent and combination experiments. Each experiment was performed in triplicate. One replicate of MDA-MB-468 treated with single-agent JQ1 was excluded from further analysis due to quality.
(§2) We employed DESeq2 (Love et al., Genome Biology, 15(12):550, 2014) to identify changes in gene expression due to the JQ1, Compound 1, and JQ1-Compound 1 combination treatment compared to the control DMSO condition based on the RNA-seq data. Genes resulting in a p-value below 0.01 and an absolute logFoldChange above 0.5 were considered to be differentially expressed. […] The same is true for 1459 of 2414 genes in MDA-MB468.
(§3) To identify the genes whose expression is impacted synergistically by the drug combination, we modeled the effect of each drug treatment on expression using a linear model. The expression of each gene after the combination treatment can be thought of as the combined impact of Compound 1, JQ1, and any synergistic interaction between the drug treatments on baseline gene expression. A linear model used to describe this relationship could therefore be represented as:
(§4) Gene Expression after combination treatment=Baseline Expression+Compound 1 effect+JQ1 effect+Combination effect (Synergistic Impact)
(§5) By fitting the expression data for each gene using this model, we were able to evaluate the effect of each treatment, and identify cases where a synergistic interaction between Compound 1 and JQ1 impacts final gene expression. After fitting the linear model to each gene, the weight and p-value of each term can be evaluated. The combination term's weight signifies the mean change resulting from a synergetic impact on expression, with a negative weight indicating synergistic downregulation. Its associated p-value represents the probability that the combination term is not relevant to final gene expression. Using this approach, we identified 1806 genes in HCC70 and 2205 genes in MDA-MB468 whose expression change in the combination treatment was synergistic and whose associated p-value was less than a threshold cutoff of 0.01. The expression of these synergistic genes could not be explained by an additive effect of Compound 1 and JQ1 alone.

[2] = system: gene expression in HCC70 cells; experiment: Gene expression profiling via RNA-seq (DESeq2, linear model), HCC70; type: cell-based; settings: four hours, JQ1 125 nM, Compound 1 25 nM
Procedure: as §1, §2, §3, §4, §5

[3] = system: HR^+ breast cancer cell lines; settings: several HR^+ breast cancer cell lines; cited from earlier work

Row | SMILES | Average Expression (TPM) FOXC1 ([1]; DMSO 33.731) | Average Expression (TPM) GATA3 ([1]; DMSO 34.244) | Average Expression (TPM) TGIF1 ([1]; DMSO 145.88) | Average Expression (TPM) GATA3 ([2]; DMSO 32.685) | Average Expression (TPM) FOXC1 ([2]; DMSO 40.481) | Average Expression (TPM) TGIF1 ([2]; DMSO 62.523) | In vitro synergy with fulvestrant [3]
1 | Cc1sc2c(c1C)C(c1ccc(Cl)cc1)=N[C@@H](CC(=O)OC(C)(C)C)c1nnc(C)n1-2 [JQ1, reference compound] | 37.112 TPM | 32.491 TPM | 151.60 TPM | 29.574 TPM | 40.529 TPM | 52.509 TPM | –
2 | CN(C)C/C=C/C(=O)Nc1ccc(C(=O)Nc2cccc(Nc3ncc(Cl)c(-c4c[nH]c5ccccc45)n3)c2)cc1 [THZ-1] | – | – | – | – | – | – | synergy
